Assays:
[1] = Apparent permeability in human Caco2 cells; assay type: ADME, cell-based; details: Caco-2
[2] = Lipophilicity, log P of the compound; assay type: physicochemical; details: octanol/water

Papp [1]: 39 ×10⁻⁶ cm/s
logP [2]: 2.6
SMILES: CC(C)(C)C(=O)Nc1ncnc2c1cnn2CCN1CCCCC1

Reference: ChEMBL document CHEMBL4261507, “Pyrazolo[3,4-d]pyrimidines as sigma-1 receptor ligands for the treatment of pain. Part 1: 4-acylamino derivatives” (Medchemcomm, 2017)
